Measured values from ChEMBL document CHEMBL5303763, “Data for DCP probe BI-3802” (2023).

What was measured:
[1] = target: 5-hydroxytryptamine receptor 1B (Rattus norvegicus) (UniProt P28564); assay: 5HT1B/R Eurofins SafetyScreen44 (BI); conditions: Compound concentration 10.0 uM
[2] = target: Kappa-type opioid receptor (Rattus norvegicus) (UniProt P34975); assay: KAPPA/R Eurofins SafetyScreen44 (BI); conditions: Compound concentration 10.0 uM
[3] = target: AMP-activated protein kinase (AMPK) alpha-1/beta-1/gamma-1 (Homo sapiens) (UniProt P54619+Q9Y478+Q13131); assay: AMPK A1B1G1 Invitrogen Lab (UK) kinase screen (BI); format: protein-complex assay; conditions: Compound concentration 1.0 uM
[4] = target: Aurora kinase B (Homo sapiens) (UniProt Q96GD4); assay: AURKB Invitrogen Lab (UK) kinase screen (BI); conditions: Compound concentration 1.0 uM
[5] = target: Ephrin type-A receptor 2 (Homo sapiens) (UniProt P29317); assay: EPHA2 Invitrogen Lab (UK) kinase screen (BI); conditions: Compound concentration 1.0 uM
[6] = target: Tyrosine-protein kinase ITK/TSK (Homo sapiens) (UniProt Q08881); assay: ITK Invitrogen Lab (UK) kinase screen (BI); conditions: Compound concentration 1.0 uM
[7] = target: Vascular endothelial growth factor receptor 2 (Homo sapiens) (UniProt P35968); assay: KDR Invitrogen Lab (UK) kinase screen (BI); conditions: Compound concentration 1.0 uM
[8] = target: Leucine-rich repeat serine/threonine-protein kinase 2 (Homo sapiens) (UniProt Q5S007); assay: LRRK2 Invitrogen Lab (UK) kinase screen (BI); conditions: Compound concentration 1.0 uM
[9] = target: Mitogen-activated protein kinase kinase kinase 8 (Homo sapiens) (UniProt P41279); assay: MAP3K8 Invitrogen Lab (UK) kinase screen (BI); conditions: Compound concentration 1.0 uM
[10] = target: Mitogen-activated protein kinase 1 (Homo sapiens) (UniProt P28482); assay: MAPK1 Invitrogen Lab (UK) kinase screen (BI); conditions: Compound concentration 1.0 uM
[11] = target: Mitogen-activated protein kinase 14 (Homo sapiens) (UniProt Q16539); assay: MAPK14 Invitrogen Lab (UK) kinase screen (BI); conditions: Compound concentration 1.0 uM
[12] = target: Phosphatidylinositol 4,5-bisphosphate 3-kinase catalytic subunit gamma isoform (Homo sapiens) (UniProt P48736); assay: PIK3CG Invitrogen Lab (UK) kinase screen (BI); conditions: Compound concentration 1.0 uM
Sequence of Phosphatidylinositol 4,5-bisphosphate 3-kinase catalytic subunit gamma isoform (Homo sapiens) (P48736 whole entry, looked up, canonical isoform): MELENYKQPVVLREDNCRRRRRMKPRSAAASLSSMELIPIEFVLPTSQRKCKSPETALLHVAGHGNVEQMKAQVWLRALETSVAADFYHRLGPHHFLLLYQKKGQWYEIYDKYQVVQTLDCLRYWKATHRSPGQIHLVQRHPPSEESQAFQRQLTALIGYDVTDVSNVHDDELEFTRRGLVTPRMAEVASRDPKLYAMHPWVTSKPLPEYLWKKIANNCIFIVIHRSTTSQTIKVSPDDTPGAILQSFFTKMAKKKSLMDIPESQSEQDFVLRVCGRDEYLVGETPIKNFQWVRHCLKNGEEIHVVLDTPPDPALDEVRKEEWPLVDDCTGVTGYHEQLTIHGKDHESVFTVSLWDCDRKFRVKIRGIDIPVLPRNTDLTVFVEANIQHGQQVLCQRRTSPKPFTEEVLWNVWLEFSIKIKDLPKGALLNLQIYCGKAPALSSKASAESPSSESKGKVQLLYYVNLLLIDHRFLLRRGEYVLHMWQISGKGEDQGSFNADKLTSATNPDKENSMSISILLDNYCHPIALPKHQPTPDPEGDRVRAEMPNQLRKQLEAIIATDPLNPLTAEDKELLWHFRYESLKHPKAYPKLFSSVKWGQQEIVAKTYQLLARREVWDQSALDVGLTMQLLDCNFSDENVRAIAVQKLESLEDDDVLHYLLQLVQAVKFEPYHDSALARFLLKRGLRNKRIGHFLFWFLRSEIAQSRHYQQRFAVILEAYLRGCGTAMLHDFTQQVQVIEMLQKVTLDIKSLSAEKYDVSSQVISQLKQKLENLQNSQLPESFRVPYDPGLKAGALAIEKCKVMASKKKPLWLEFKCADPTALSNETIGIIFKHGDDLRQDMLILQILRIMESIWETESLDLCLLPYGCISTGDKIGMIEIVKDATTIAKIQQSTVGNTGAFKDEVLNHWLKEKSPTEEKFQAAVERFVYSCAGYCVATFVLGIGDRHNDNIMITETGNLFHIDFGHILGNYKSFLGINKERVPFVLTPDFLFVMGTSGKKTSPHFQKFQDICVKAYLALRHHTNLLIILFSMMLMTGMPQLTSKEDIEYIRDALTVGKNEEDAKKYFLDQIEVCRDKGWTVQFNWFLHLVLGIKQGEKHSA

[13] = target: Protein kinase C alpha type (Homo sapiens) (UniProt P17252); assay: PRKCA Invitrogen Lab (UK) kinase screen (BI); conditions: Compound concentration 1.0 uM
[14] = target: Proto-oncogene tyrosine-protein kinase Src (Homo sapiens) (UniProt P12931); assay: SRC Invitrogen Lab (UK) kinase screen (BI); conditions: Compound concentration 1.0 uM
[15] = target: SRSF protein kinase 2 (Homo sapiens) (UniProt P78362); assay: SRPK2 Invitrogen Lab (UK) kinase screen (BI); conditions: Compound concentration 1.0 uM
[16] = target: Serine/threonine-protein kinase TBK1 (Homo sapiens) (UniProt Q9UHD2); assay: TBK1 Invitrogen Lab (UK) kinase screen (BI); conditions: Compound concentration 1.0 uM
[17] = target: 5-hydroxytryptamine receptor 2A (Homo sapiens) (UniProt P28223); conditions: Compound concentration 10.0 uM
Sequence of 5-hydroxytryptamine receptor 2A (Homo sapiens) (P28223 whole entry): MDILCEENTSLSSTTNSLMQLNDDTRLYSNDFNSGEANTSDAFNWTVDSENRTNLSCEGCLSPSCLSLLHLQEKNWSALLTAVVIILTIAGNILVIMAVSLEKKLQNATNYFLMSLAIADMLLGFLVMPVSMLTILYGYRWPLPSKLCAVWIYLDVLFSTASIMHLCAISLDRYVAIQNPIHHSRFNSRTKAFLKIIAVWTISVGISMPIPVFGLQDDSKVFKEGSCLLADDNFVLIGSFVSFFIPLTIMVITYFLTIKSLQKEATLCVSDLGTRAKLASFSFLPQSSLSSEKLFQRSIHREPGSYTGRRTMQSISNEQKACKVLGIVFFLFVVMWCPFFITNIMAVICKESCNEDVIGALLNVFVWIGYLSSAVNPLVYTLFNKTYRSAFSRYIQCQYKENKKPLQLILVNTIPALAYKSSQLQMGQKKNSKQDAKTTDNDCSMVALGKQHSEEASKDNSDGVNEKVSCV

[18] = target: 5-hydroxytryptamine receptor 2C (Homo sapiens) (UniProt P28335); conditions: Compound concentration 10.0 uM
Sequence of 5-hydroxytryptamine receptor 2C (Homo sapiens) (P28335 whole entry): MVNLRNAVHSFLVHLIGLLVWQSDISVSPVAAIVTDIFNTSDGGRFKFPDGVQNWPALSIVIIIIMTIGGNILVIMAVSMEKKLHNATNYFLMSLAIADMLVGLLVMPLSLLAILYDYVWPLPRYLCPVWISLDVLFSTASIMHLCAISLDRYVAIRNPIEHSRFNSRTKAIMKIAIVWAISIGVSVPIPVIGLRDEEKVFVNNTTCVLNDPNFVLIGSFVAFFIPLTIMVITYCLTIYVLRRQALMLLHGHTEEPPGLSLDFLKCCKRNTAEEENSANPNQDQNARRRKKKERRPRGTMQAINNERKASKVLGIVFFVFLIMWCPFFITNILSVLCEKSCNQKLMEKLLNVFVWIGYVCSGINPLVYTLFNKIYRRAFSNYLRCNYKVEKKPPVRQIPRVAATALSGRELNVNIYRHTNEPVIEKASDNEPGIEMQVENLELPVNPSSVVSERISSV

[19] = target: D(1A) dopamine receptor (Homo sapiens) (UniProt P21728); conditions: Compound concentration 10.0 uM
Sequence of D(1A) dopamine receptor (Homo sapiens) (P21728 whole entry): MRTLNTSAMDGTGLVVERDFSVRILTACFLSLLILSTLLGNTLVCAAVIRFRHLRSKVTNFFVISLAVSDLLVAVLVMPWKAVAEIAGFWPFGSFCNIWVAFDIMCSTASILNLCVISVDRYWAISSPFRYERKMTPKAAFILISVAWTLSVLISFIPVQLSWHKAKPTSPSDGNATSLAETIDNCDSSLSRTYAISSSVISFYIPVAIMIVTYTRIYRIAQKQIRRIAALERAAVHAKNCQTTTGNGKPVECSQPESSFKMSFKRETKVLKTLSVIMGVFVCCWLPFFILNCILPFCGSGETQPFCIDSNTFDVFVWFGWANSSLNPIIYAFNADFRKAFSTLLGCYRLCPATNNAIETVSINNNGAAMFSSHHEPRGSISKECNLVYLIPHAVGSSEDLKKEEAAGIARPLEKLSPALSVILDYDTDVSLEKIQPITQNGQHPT

[20] = target: D(4) dopamine receptor (Homo sapiens) (UniProt P21917); conditions: Compound concentration 10.0 uM
Sequence of D(4) dopamine receptor (Homo sapiens) (P21917 whole entry): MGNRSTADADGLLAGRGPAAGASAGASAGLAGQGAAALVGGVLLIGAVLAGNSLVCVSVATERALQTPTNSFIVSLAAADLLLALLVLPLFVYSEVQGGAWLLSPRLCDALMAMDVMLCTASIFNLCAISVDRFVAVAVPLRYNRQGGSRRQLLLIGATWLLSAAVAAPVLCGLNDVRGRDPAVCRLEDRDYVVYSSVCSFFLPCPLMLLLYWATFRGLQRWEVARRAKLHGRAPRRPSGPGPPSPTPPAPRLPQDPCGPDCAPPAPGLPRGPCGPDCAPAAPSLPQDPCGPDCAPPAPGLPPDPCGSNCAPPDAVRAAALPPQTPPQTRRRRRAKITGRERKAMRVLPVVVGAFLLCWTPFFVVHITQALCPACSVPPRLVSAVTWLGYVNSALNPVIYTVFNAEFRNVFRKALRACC

[21] = target: Sodium-dependent serotonin transporter (Homo sapiens) (UniProt P31645); conditions: Compound concentration 10.0 uM
Sequence of Sodium-dependent serotonin transporter (Homo sapiens) (P31645 whole entry, looked up): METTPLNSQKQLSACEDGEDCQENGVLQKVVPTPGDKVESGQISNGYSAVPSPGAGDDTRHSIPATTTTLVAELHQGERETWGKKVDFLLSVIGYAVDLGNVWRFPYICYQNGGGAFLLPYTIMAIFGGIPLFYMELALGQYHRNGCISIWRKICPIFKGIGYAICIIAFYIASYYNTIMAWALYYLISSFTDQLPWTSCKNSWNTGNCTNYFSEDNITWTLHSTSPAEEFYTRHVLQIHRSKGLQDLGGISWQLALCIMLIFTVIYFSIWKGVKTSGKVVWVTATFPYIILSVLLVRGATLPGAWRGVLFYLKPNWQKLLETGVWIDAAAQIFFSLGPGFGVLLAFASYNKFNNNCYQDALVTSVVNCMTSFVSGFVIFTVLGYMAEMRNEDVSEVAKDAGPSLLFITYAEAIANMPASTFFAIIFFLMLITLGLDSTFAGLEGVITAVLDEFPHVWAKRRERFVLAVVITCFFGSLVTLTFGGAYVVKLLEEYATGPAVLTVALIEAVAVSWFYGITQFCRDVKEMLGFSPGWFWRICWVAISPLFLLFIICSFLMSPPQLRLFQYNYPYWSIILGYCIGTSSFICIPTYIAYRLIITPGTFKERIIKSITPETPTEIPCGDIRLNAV

[22] = target: Sodium-dependent noradrenaline transporter (Homo sapiens) (UniProt P23975); conditions: Compound concentration 10.0 uM
Sequence of Sodium-dependent noradrenaline transporter (Homo sapiens) (P23975 whole entry): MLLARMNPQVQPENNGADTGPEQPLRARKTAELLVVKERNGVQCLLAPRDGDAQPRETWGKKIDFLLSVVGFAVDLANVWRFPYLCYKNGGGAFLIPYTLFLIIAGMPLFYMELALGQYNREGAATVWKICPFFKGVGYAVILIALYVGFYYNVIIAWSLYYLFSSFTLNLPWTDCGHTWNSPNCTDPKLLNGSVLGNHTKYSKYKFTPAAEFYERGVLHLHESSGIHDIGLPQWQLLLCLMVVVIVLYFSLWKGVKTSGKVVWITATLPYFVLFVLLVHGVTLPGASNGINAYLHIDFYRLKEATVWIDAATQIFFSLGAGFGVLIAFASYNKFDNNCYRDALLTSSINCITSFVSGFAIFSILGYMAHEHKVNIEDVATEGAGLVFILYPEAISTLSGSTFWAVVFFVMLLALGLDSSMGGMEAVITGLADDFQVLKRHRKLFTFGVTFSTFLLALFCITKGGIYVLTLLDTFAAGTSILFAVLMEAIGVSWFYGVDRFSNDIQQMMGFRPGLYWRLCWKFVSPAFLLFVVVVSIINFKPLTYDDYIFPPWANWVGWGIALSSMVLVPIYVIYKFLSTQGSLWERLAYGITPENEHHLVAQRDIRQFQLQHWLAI

[23] = target: Kappa-type opioid receptor (Homo sapiens) (UniProt P41145); conditions: Compound concentration 10.0 uM
Sequence of Kappa-type opioid receptor (Homo sapiens) (P41145 whole entry): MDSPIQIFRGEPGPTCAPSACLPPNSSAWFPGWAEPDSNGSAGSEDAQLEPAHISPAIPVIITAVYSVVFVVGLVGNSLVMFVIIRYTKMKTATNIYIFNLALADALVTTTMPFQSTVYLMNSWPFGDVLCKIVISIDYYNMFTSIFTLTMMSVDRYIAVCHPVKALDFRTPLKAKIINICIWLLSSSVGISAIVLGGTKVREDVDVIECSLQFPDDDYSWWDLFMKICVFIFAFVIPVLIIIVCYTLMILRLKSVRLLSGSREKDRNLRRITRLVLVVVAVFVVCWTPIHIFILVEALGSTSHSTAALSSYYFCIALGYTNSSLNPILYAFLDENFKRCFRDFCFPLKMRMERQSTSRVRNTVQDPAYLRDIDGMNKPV

[24] = target: Histamine H2 receptor (Homo sapiens) (UniProt P25021); conditions: Compound concentration 10.0 uM
Sequence of Histamine H2 receptor (Homo sapiens) (P25021 whole entry): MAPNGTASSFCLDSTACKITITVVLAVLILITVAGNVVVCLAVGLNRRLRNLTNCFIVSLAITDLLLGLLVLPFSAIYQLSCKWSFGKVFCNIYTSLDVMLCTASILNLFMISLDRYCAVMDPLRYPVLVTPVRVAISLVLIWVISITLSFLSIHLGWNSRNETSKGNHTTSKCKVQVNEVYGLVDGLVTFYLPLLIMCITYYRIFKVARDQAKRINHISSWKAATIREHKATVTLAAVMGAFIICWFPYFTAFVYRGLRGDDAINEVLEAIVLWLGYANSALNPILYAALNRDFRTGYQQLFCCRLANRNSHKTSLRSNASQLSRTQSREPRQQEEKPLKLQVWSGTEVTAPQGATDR

[25] = target: 3-phosphoinositide-dependent protein kinase 1 (Homo sapiens) (UniProt O15530); assay: PDK1 Invitrogen Lab (UK) kinase screen (BI); conditions: Compound concentration 1.0 uM

CNC(=O)COc1cc2cc(Nc3nc(N4C[C@H](C)C[C@H](C)C4)ncc3Cl)ccc2n(C)c1=O
inactive: residual activity [1] 115% | residual activity [2] 89% | residual activity [3] 101% | residual activity [4] 97% | residual activity [5] 97% | residual activity [6] 100% | residual activity [7] 111% | residual activity [8] 78% | residual activity [9] 118% | residual activity [10] 106% | residual activity [11] 100% | residual activity [12] 95% | residual activity [13] 113% | residual activity [14] 105% | residual activity [15] 106% | residual activity [16] 120% | inhibition [17] -1.56% | inhibition [18] 0.15% | inhibition [19] -4.07% | inhibition [20] -9.6% | inhibition [21] 2.53% | inhibition [22] 9.75% | inhibition [23] 33.5% | inhibition [24] 13.9% | residual activity [25] 98%
